Reference: ChEMBL document CHEMBL1129888, “Synthesis and evaluation of halogenated dibenzodiazepines as muscarinic receptor ligands” (Bioorg Med Chem Lett, 1997)

Legend:
[1] = target: T1, Muscarinic acetylcholine receptor M1 (Homo sapiens, UniProt P11229); test: Tested in vitro for the binding affinity against muscarinic receptor subtype 1 (M1)
T1 sequence (P11229 whole entry): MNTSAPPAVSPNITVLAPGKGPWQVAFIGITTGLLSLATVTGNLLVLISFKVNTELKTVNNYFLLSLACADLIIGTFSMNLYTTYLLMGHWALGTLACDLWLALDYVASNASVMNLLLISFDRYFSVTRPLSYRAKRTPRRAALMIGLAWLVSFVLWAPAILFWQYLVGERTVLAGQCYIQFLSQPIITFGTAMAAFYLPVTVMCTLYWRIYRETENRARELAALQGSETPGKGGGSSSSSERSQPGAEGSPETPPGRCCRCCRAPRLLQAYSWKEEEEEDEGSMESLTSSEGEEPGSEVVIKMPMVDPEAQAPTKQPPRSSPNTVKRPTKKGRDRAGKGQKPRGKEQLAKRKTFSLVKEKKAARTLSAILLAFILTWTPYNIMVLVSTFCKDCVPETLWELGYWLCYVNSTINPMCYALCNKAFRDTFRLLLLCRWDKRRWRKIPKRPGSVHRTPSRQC

[2] = target: T2, Muscarinic acetylcholine receptor M2 (Homo sapiens, UniProt P08172); test: Tested in vitro for the binding affinity against muscarinic receptor subtype 2 (M2)
T2 sequence (P08172 whole entry): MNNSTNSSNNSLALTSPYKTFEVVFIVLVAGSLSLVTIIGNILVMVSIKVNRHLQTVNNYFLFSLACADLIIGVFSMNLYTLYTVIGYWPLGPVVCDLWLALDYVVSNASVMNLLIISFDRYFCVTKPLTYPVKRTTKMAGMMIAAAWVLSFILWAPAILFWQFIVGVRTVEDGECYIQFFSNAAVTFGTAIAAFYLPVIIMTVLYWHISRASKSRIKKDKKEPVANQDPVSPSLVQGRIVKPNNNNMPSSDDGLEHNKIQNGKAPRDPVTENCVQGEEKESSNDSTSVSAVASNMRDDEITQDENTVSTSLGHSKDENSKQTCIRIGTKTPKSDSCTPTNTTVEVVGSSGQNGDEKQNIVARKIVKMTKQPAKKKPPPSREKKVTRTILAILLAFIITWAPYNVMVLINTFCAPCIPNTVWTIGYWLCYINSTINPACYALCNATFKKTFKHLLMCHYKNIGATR

[3] = target: Muscarinic acetylcholine receptor M3 (Homo sapiens, UniProt P20309); test: Tested in vitro for the binding affinity against muscarinic receptor subtype 3 (M3)
Muscarinic acetylcholine receptor M3, sequence (P20309 whole entry): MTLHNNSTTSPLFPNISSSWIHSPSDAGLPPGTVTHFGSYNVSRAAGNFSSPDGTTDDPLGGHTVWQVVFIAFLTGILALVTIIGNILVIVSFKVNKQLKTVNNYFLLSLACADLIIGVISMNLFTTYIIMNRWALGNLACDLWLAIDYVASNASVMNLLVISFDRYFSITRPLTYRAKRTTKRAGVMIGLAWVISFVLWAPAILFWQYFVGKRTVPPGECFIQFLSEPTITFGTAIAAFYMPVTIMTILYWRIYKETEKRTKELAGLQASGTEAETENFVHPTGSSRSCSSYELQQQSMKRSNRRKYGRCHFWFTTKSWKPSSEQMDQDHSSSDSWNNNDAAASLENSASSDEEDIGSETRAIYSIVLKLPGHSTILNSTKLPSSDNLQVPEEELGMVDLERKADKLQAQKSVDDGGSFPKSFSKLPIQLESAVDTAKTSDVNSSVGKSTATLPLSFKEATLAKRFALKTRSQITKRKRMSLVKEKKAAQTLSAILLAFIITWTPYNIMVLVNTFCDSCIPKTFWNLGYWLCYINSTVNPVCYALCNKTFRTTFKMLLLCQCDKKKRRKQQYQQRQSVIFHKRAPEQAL

SMILES	Ki [1]	Ki [2]	Ki [3]
CCNCCCCC1CCN(CC(=O)N2c3ccccc3NC(=O)c3ccccc32)CC1	6.98 nM	4.49 nM	
CCOC(=O)N(CC)CCCCC1CCN(CC(=O)N2c3ccccc3NC(=O)c3ccccc32)CC1	70 nM	37.1 nM	39.2 nM
CCN(CCCCC1CCN(CC(=O)N2c3ccccc3NC(=O)c3ccccc32)CC1)C(=O)c1ccc(F)cc1	59.4 nM	32 nM	46.4 nM
CCN(CCCCC1CCN(CC(=O)N2c3ccccc3NC(=O)c3ccccc32)CC1)C(=O)c1cccc(I)c1	67.1 nM	111 nM	33.5 nM
CCN(CCCCC1CCN(CC(=O)N2c3ccccc3C(=O)N(C(=O)c3ccc(F)cc3)c3ccccc32)CC1)C(=O)c1ccc(F)cc1	129 nM	46.9 nM	79.1 nM
